This is an account of results in PubChem BioAssay AID540315 (Broad Institute, 2011).

The structures appear in SMILES notation. Active and inactive are the calls of the source.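 Rule for the calls: active = compounds lowering cell viability whose fitted half-effect dose is at most ten times the top tested dose; inconclusive = flat curve with moderate viability loss, or a poor fit; inactive = the rest.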

The nature of assay [1]: growth inhibition of HRAS-transformed DRD cells – cell-based, secondary screen, plate reader, dry powder, set 4, dose response (AID 540315). As to conditions: DRD HRASV12-transformed BJ fibroblasts viability, Alamar Blue, 48 h; at 48 µM (top of the series). For orientation: Alamar Blue is a resazurin reagent that responds to reducing activity.
In assay [2] the test system is DRD HRASV12-transformed BJ fibroblasts viability, Alamar Blue, 48 h. The assay is described as above.

Consider `Cc1onc(C(=O)N2CCN(Cc3ccccc3)CC2)c1[N+](=O)[O-]`, for which the activity change, negative = viability loss in assay [1] is -2.4% (inactive).
In general, AC50 refers to the concentration at which the activity in the assay is half-maximal. With `CCOc1ccccc1-n1c(C(C)N2CCN(C(=O)COc3ccc(Cl)cc3)CC2)nc2ccccc2c1=O` (centres undefined), the AC50 in assay [2] is 2.16 µM.
`COc1ccc(C(c2ccc(OC)cc2)N2CCN(C(=O)c3noc(C)c3[N+](=O)[O-])CC2)cc1`: the AC50 in assay [2] was 4.37 µM.
Still for that read-out and setting: the same measure for `Cc1onc(C(=O)N2CCCN(C(c3ccccc3)c3ccccc3)CC2)c1[N+](=O)[O-]`: 3.87 µM; for `Cc1onc(C(=O)N2CCN(C(c3ccc(F)cc3)c3ccc(F)cc3)CC2)c1[N+](=O)[O-]`: 0.784 µM.
Regarding `COc1ccc(C(c2ccc(OC)cc2)N2CCN(C(=O)c3ccc([N+](=O)[O-])o3)CC2)cc1`, the concentration at half-maximal activity (AC50) in assay [2] is 5.84 µM.
In the case of `O=C(c1ccc([N+](=O)[O-])o1)N1CCN(C(c2ccc(F)cc2)c2ccc(F)cc2)CC1`, in assay [2], the AC50 was 10.7 µM.
In the case of `COC(=O)c1ccc([C@@H]2c3[nH]c4ccccc4c3C[C@@H](C(=O)OC)N2C(=O)CCl)cc1`, the AC50 in assay [2] is 0.604 µM.
Same read-out and setting: to `O=C(NCCNC(c1ccccc1)c1ccccc1)c1ccc([N+](=O)[O-])o1` belongs 5.59 µM; to `Cc1onc(CC(=O)N2CCN(C(c3ccc(F)cc3)c3ccc(F)cc3)CC2)c1[N+](=O)[O-]`, 30.9 µM.
Take `Cc1onc(C(=O)N2CCN(C(c3ccc(Cl)cc3)c3ccc(Cl)cc3)CC2)c1[N+](=O)[O-]`: in assay [2], the AC50 was 0.287 µM.
Consider `Cc1onc(C(=O)NCCNC(c2ccccc2)c2ccccc2)c1[N+](=O)[O-]`, for which the concentration at half-maximal activity (AC50) in assay [2] is 43.8 µM.
Consider `Cc1onc(C(=O)N2CCN(C(c3ccccc3)c3ccc(Cl)cc3)CC2)c1[N+](=O)[O-]` (centres undefined), for which the concentration at half-maximal activity (AC50) in assay [2] is 0.585 µM.
`Cc1onc(C(=O)N2CCN(C(c3ccccc3)c3ccccc3)CC2)c1[N+](=O)[O-]`: the half-maximal activity concentration (AC50) in assay [2] was 2.64 µM.
